Laboratory results published in US9028858B2 (Coloplast A/S, priority 2003, dated 2015).
Where two headings read alike, the source gives them in different places.

Tests used:
[1] = system: 7 different bacterial strains; conditions: for bacterial survival rate, Mean: exposed 60 min.; for surviving bacteria, Mean (% of control): 1% hydrogen peroxide
[2] = hydrogen peroxide taken alone
[3] = for %-point H2O2 after storage / Appearance of catheter (0–5; 0 = perfect, 5 = unacceptable) / Appearance of swelling medium (0–5) / Loss of H2O2 (%/day) / pH after storage: 1 week
[4] = 23° C., 8 months, pH 7 without buffer
Method: Samples were β-sterilized at 50 kGy and stored at 23° C. for 8 months.
The results were calculated from 86 separate samples (mean value±standard deviation of mean value) (Table 5.1).

[5] = Effect of buffer (citrate) in swelling medium on degradation of H2O2; conditions: no stabilizer
[6] = Method: The pH value of the latter solution was adjusted to 5.5 with 1 M NaOH. 10.0 mL aliquots of each of the two solutions were taken out and placed in 50 mL brown PE-containers.
The samples were β-irradiation at Risø National Laboratory. The samples were measured before irradiation, immediately after irradiation and after 2 and 4 weeks storage at 60° C. (triple determination).

[7] = system: 7 different bacterial strains; conditions: mid-log phase, absorbance at 600 nm, 7 strains pooled
Description: The obtained data from each specific bacterial strain were pooled.

[8] = initial 0.2%-point H2O2, 60° C., no PEG 2000
[9] = initial 0.2%-point H2O2, 80° C., no PEG 2000
[10] = initial 0.4%-point H2O2, 60° C., no PEG 2000
[11] = initial 0.4%-point H2O2, 80° C., no PEG 2000
[12] = initial 0.8%-point H2O2, 60° C., no PEG 2000
[13] = initial 0.8%-point H2O2, 80° C., no PEG 2000
[14] = initial 1.6%-point H2O2, 60° C., 6% PEG 2000
[15] = initial 1.6%-point H2O2, 60° C., no PEG 2000
[16] = initial 1.6%-point H2O2, 80° C., 6% PEG 2000
[17] = initial 1.6%-point H2O2, 80° C., no PEG 2000

## OO [Std H2O2, hydrogen peroxide]
[1]; 0.016% hydrogen peroxide
  bacterial survival rate, Mean: 49.8
[1]; 0.031% hydrogen peroxide
  bacterial survival rate, Mean: 38.1
[1]; 0.063% hydrogen peroxide
  bacterial survival rate, Mean: 27.8
[1]; 0.125% hydrogen peroxide
  bacterial survival rate, Mean: 14.5
[1]; 0.250% hydrogen peroxide
  bacterial survival rate, Mean: 9.1
[1]; 0.500% hydrogen peroxide
  bacterial survival rate, Mean: 0.2
[1]; 1.000% hydrogen peroxide
  bacterial survival rate, Mean: 0.0
[1]; exposure time 5 min
  surviving bacteria, Mean (% of control): 37 % of control
[1]; exposure time 10 min
  surviving bacteria, Mean (% of control): 17 % of control
[1]; exposure time 15 min
  surviving bacteria, Mean (% of control): 6 % of control
[2]
  speed of effect compared to a range of other anti-microbial agents: rapid
[3]; 1 week at 80° C., samples not containing PEG 2000, regardless of initial H2O2 concentration
  H2O2 disappeared during storage: 25-30%
[3]; [8]
  %-point H2O2 after storage: 0.20 %-point
  Appearance of catheter (0–5; 0 = perfect, 5 = unacceptable): 0
  Appearance of swelling medium (0–5): 0
  Loss of H2O2 (%/day): 0.3 %/day
  pH after storage: 5.64
[3]; [9]
  %-point H2O2 after storage: 0.15 %-point
  Appearance of catheter (0–5; 0 = perfect, 5 = unacceptable): 0
  Appearance of swelling medium (0–5): 0
  Loss of H2O2 (%/day): 3.5 %/day
  pH after storage: 5.63
[3]; [10]
  %-point H2O2 after storage: 0.37 %-point
  Appearance of catheter (0–5; 0 = perfect, 5 = unacceptable): 0
  Appearance of swelling medium (0–5): 0
  Loss of H2O2 (%/day): 1.0 %/day
  pH after storage: 5.63
[3]; [11]
  %-point H2O2 after storage: 0.29 %-point
  Appearance of catheter (0–5; 0 = perfect, 5 = unacceptable): 0
  Appearance of swelling medium (0–5): 0
  Loss of H2O2 (%/day): 3.8 %/day
  pH after storage: 5.79
[3]; [12]
  %-point H2O2 after storage: 0.75 %-point
  Appearance of catheter (0–5; 0 = perfect, 5 = unacceptable): 0
  Appearance of swelling medium (0–5): 0
  Loss of H2O2 (%/day): 0.9 %/day
  pH after storage: 5.63
[3]; [13]
  %-point H2O2 after storage: 0.58 %-point
  Appearance of catheter (0–5; 0 = perfect, 5 = unacceptable): 0
  Appearance of swelling medium (0–5): 0
  Loss of H2O2 (%/day): 4.0 %/day
  pH after storage: 5.86
[3]; [14]
  %-point H2O2 after storage: 1.25 %-point
  Appearance of catheter (0–5; 0 = perfect, 5 = unacceptable): 1
  Appearance of swelling medium (0–5): 0
  Loss of H2O2 (%/day): 3.2 %/day
  pH after storage: 5.13
[3]; [15]
  %-point H2O2 after storage: 1.41 %-point
  Appearance of catheter (0–5; 0 = perfect, 5 = unacceptable): 0
  Appearance of swelling medium (0–5): 0
  Loss of H2O2 (%/day): 1.7 %/day
  pH after storage: 5.71
[3]; [16]
  %-point H2O2 after storage: 0.02 %-point
  Appearance of catheter (0–5; 0 = perfect, 5 = unacceptable): 3
  Appearance of swelling medium (0–5): 0
  Loss of H2O2 (%/day): 14.1 %/day
  pH after storage: 3.46
[3]; [17]
  %-point H2O2 after storage: 1.13 %-point
  Appearance of catheter (0–5; 0 = perfect, 5 = unacceptable): 0
  Appearance of swelling medium (0–5): 0
  Loss of H2O2 (%/day): 4.2 %/day
  pH after storage: 6.28
[4]; initial 1% H2O2, 0% PVP C-15, 50 kGy
  H2O2 loss per day (%): 0.088 ± 0.029%
[4]; initial 1% H2O2, 6% PVP C-15, 50 kGy
  H2O2 loss per day (%): 0.167 ± 0.048%
[5]; 0 mM citrate, pH 5.5
  Calculated degraded amount of H2O2 (%) after 2 years storage at 23° C.: 22.4%
[5]; 0 mM citrate, pH 7
  Calculated degraded amount of H2O2 (%) after 2 years storage at 23° C.: 60.2%
[5]; 10 mM citrate, pH 4
  Calculated degraded amount of H2O2 (%) after 2 years storage at 23° C.: 47.6%
[5]; 10 mM citrate, pH 5.5
  Calculated degraded amount of H2O2 (%) after 2 years storage at 23° C.: 63.0%
[5]; 10 mM citrate, pH 7
  Calculated degraded amount of H2O2 (%) after 2 years storage at 23° C.: 277.1%
[5]; 25 mM citrate, pH 5.5
  Calculated degraded amount of H2O2 (%) after 2 years storage at 23° C.: 74.2%
[5]; 25 mM citrate, pH 7
  Calculated degraded amount of H2O2 (%) after 2 years storage at 23° C.: 201.5%
[6]; Series I, catheter swelled in a solution of PVP, 0 kGy, 1 week at 60° C.
  Concentration of H2O2 (%-point): 0.97 %-point
[6]; Series I, catheter swelled in a solution of PVP, 0 kGy, 2 weeks at 60° C.
  Concentration of H2O2 (%-point): 0.87 %-point
[6]; Series I, catheter swelled in a solution of PVP, 0 kGy, after irradiation
  Concentration of H2O2 (%-point): 1.00 %-point
[6]; Series I, catheter swelled in a solution of PVP, 25 kGy, 1 week at 60° C.
  Concentration of H2O2 (%-point): 0.79 %-point
[6]; Series I, catheter swelled in a solution of PVP, 25 kGy, 2 weeks at 60° C.
  Concentration of H2O2 (%-point): 0.70 %-point
[6]; Series I, catheter swelled in a solution of PVP, 25 kGy, after irradiation
  Concentration of H2O2 (%-point): 0.85 %-point
[6]; Series I, catheter swelled in a solution of PVP, 50 kGy, 1 week at 60° C.
  Concentration of H2O2 (%-point): 0.58 %-point
[6]; Series I, catheter swelled in a solution of PVP, 50 kGy, 2 weeks at 60° C.
  Concentration of H2O2 (%-point): 0.46 %-point
[6]; Series I, catheter swelled in a solution of PVP, 50 kGy, after irradiation
  Concentration of H2O2 (%-point): 0.73 %-point
[6]; Series I, catheter swelled in a solution of PVP, 75 kGy, 1 week at 60° C.
  Concentration of H2O2 (%-point): 0.37 %-point
[6]; Series I, catheter swelled in a solution of PVP, 75 kGy, 2 weeks at 60° C.
  Concentration of H2O2 (%-point): 0.26 %-point
[6]; Series I, catheter swelled in a solution of PVP, 75 kGy, after irradiation
  Concentration of H2O2 (%-point): 0.57 %-point
[6]; Series II, catheter swelled in distilled water, 0 kGy, 1 week at 60° C.
  Concentration of H2O2 (%-point): 0.98 %-point
[6]; Series II, catheter swelled in distilled water, 0 kGy, 2 weeks at 60° C.
  Concentration of H2O2 (%-point): 0.92 %-point
[6]; Series II, catheter swelled in distilled water, 0 kGy, after irradiation
  Concentration of H2O2 (%-point): 1.00 %-point
[6]; Series II, catheter swelled in distilled water, 25 kGy, 1 week at 60° C.
  Concentration of H2O2 (%-point): 0.91 %-point
[6]; Series II, catheter swelled in distilled water, 25 kGy, 2 weeks at 60° C.
  Concentration of H2O2 (%-point): 0.85 %-point
[6]; Series II, catheter swelled in distilled water, 25 kGy, after irradiation
  Concentration of H2O2 (%-point): 0.93 %-point
[6]; Series II, catheter swelled in distilled water, 50 kGy, 1 week at 60° C.
  Concentration of H2O2 (%-point): 0.81 %-point
[6]; Series II, catheter swelled in distilled water, 50 kGy, 2 weeks at 60° C.
  Concentration of H2O2 (%-point): 0.75 %-point
[6]; Series II, catheter swelled in distilled water, 50 kGy, after irradiation
  Concentration of H2O2 (%-point): 0.87 %-point
[6]; Series II, catheter swelled in distilled water, 75 kGy, 1 week at 60° C.
  Concentration of H2O2 (%-point): 0.74 %-point
[6]; Series II, catheter swelled in distilled water, 75 kGy, 2 weeks at 60° C.
  Concentration of H2O2 (%-point): 0.66 %-point
[6]; Series II, catheter swelled in distilled water, 75 kGy, after irradiation
  Concentration of H2O2 (%-point): 0.81 %-point
[6]; Series III, H2O2-solution in distilled water, 0 kGy, 1 week at 60° C.
  Concentration of H2O2 (%-point): 0.87 %-point
[6]; Series III, H2O2-solution in distilled water, 0 kGy, 2 weeks at 60° C.
  Concentration of H2O2 (%-point): 0.76 %-point
[6]; Series III, H2O2-solution in distilled water, 0 kGy, after irradiation
  Concentration of H2O2 (%-point): 1.00 %-point
[6]; Series III, H2O2-solution in distilled water, 25 kGy, 1 week at 60° C.
  Concentration of H2O2 (%-point): 0.91 %-point
[6]; Series III, H2O2-solution in distilled water, 25 kGy, 2 weeks at 60° C.
  Concentration of H2O2 (%-point): 0.88 %-point
[6]; Series III, H2O2-solution in distilled water, 25 kGy, after irradiation
  Concentration of H2O2 (%-point): 0.95 %-point
[6]; Series III, H2O2-solution in distilled water, 50 kGy, 1 week at 60° C.
  Concentration of H2O2 (%-point): 0.84 %-point
[6]; Series III, H2O2-solution in distilled water, 50 kGy, 2 weeks at 60° C.
  Concentration of H2O2 (%-point): 0.85 %-point
[6]; Series III, H2O2-solution in distilled water, 50 kGy, after irradiation
  Concentration of H2O2 (%-point): 0.92 %-point
[6]; Series III, H2O2-solution in distilled water, 75 kGy, 1 week at 60° C.
  Concentration of H2O2 (%-point): 0.79 %-point
[6]; Series III, H2O2-solution in distilled water, 75 kGy, 2 weeks at 60° C.
  Concentration of H2O2 (%-point): 0.77 %-point
[6]; Series III, H2O2-solution in distilled water, 75 kGy, after irradiation
  Concentration of H2O2 (%-point): 0.89 %-point
[7]; 0.00000256% hydrogen peroxide
  bacterial growth, Mean (% of control): 110.0 % of control
[7]; 0.0000128% hydrogen peroxide
  bacterial growth, Mean (% of control): 99.8 % of control
[7]; 0.000064% hydrogen peroxide
  bacterial growth, Mean (% of control): 97.9 % of control
[7]; 0.000320% hydrogen peroxide
  bacterial growth, Mean (% of control): 96.2 % of control
[7]; 0.0016% hydrogen peroxide
  bacterial growth, Mean (% of control): 87.3 % of control
[7]; 0.008% hydrogen peroxide
  bacterial growth, Mean (% of control): 63.0 % of control
[7]; 0.04% hydrogen peroxide
  bacterial growth, Mean (% of control): 35.6 % of control
[7]; 0.2% hydrogen peroxide
  bacterial growth, Mean (% of control): 16.0 % of control
[7]; 1.0% hydrogen peroxide
  bacterial growth, Mean (% of control): 11.7 % of control
